# Experimental data taken from US20250099517A1, “Use of Lactobacillus reuteri Y7 strain for prevention or treatment of ocular diseases” (Taipei Medical University, priority 2023, published 2025).
# Columns and labels:
# [1] = system: MCP-1, IL-18, NLRP3, NF-KB p65, Caspase1 gene expression; assay: q-PCR of inflammation-related gene expression in eyes; format: in vivo, C57BL/6 mice; conditions: for gene expression of MCP-1 compared with the BL group / gene expression of NF-KB p65 compared with the BL group: p<0.05; for gene expression of Caspase1 / gene expression of IL-18 / gene expression of NLRP3: versus increase in BL group
# Method: The C57BL/6 mice, which weighed between 23 and 25 g, were divided into seven groups randomly. In each group, the six mice induced by blue light successfully were incorporated in experiments. The samples dissolved in deuterium-depleted water (DDW) were fed to mice through oral tubes once a day. The groups were named and introduced as follows: • (1) Solvent not classified group (NC): The mice were fed with 0.2 ml deuterium-depleted water (DDW) through tubes; • (2) Negative control group (Blue light (BL)): The mice were fed with 0.2 ml deuterium-depleted water (DDW) through tubes and exposed to blue light; • (3) Low-dosage Y7 probiotics group […]): The mice were fed with low-dosage Y7 probiotics (probiotic counts of 1.0×10^8 CFU/ml dissolved in 0.2 ml DDW per day) and exposed to blue light; • (4) High-dosage Y7 probiotics group […]): The mice were fed with high-dosage Y7 probiotics (probiotic counts of 1.0×10^9 CFU/ml dissolved in 0.2 ml DDW per day) and exposed to blue light; • (5) Positive control group (lutein (LU)): The mice were fed with lutein and exposed to blue light. The recommended human dosage of lutein is 30 mg. The mouse cage (48×25×20 cm) placed inside a stainless ventilated box was equipped with blue light boards as blue light sources around and above. In the experiment of animals exposed to blue light, six-week-old mice staying in the mouse cage were fed with drinking water as well as fodders and exposed to 400 Lux blue light illumination under the light-dark cycle of 12-hour light and 12-hour dark. The experiment was aimed at causing mice' late dry macular disease induced by chronic light injuries for simulating a human being's macular disease after long-term exposure to short-wavelength blue light from 3C products in daily life. The eyes of a mouse sacrificed were collected for the following purposes. RNAs extracted with Trizol were reverse-transcribed to cDNAs. Then, the real-time quantitative polymerase chain reaction was enabled to detect gene expressions related to inflammatory hormones and apoptosis such as TNF-α, IL-1B, IL-6, Bax, Bcl-2, Caspase1, Caspase3 and NLRP3 for comparisons with the endogenous level of β-actin, GAPDH or 18S rRNA. [table] The gene expressions related to a mouse's ocular inflammation, for example, MCP-1 (FIG. 8a), IL-18 (FIG. 8b), NLRP3 (FIG. 8c), NF-KB p65 (FIG. 8d), Caspase1 (FIG. 8e), TNF-α (FIG. 8f), IL-6 (FIG. 8g) and IL-1β (FIG. 8h), were analyzed in the experiment. […] In summary, the intervention of Y7 probiotics relieved ocular inflammation attributed to blue light.
# [2] = system: Bax, Bcl-2, Caspase3 gene expression; assay: q-PCR of apoptosis-related gene expression in eyes; format: in vivo, C57BL/6 mice
# Method: The C57BL/6 mice, which weighed between 23 and 25 g, were divided into seven groups randomly. In each group, the six mice induced by blue light successfully were incorporated in experiments. The samples dissolved in deuterium-depleted water (DDW) were fed to mice through oral tubes once a day. The groups were named and introduced as follows: • (1) Solvent not classified group (NC): The mice were fed with 0.2 ml deuterium-depleted water (DDW) through tubes; • (2) Negative control group (Blue light (BL)): The mice were fed with 0.2 ml deuterium-depleted water (DDW) through tubes and exposed to blue light; • (3) Low-dosage Y7 probiotics group […]): The mice were fed with low-dosage Y7 probiotics (probiotic counts of 1.0×10^8 CFU/ml dissolved in 0.2 ml DDW per day) and exposed to blue light; • (4) High-dosage Y7 probiotics group […]): The mice were fed with high-dosage Y7 probiotics (probiotic counts of 1.0×10^9 CFU/ml dissolved in 0.2 ml DDW per day) and exposed to blue light; • (5) Positive control group (lutein (LU)): The mice were fed with lutein and exposed to blue light. The recommended human dosage of lutein is 30 mg. The mouse cage (48×25×20 cm) placed inside a stainless ventilated box was equipped with blue light boards as blue light sources around and above. In the experiment of animals exposed to blue light, six-week-old mice staying in the mouse cage were fed with drinking water as well as fodders and exposed to 400 Lux blue light illumination under the light-dark cycle of 12-hour light and 12-hour dark. The experiment was aimed at causing mice' late dry macular disease induced by chronic light injuries for simulating a human being's macular disease after long-term exposure to short-wavelength blue light from 3C products in daily life. The eyes of a mouse sacrificed were collected for the following purposes. RNAs extracted with Trizol were reverse-transcribed to cDNAs. Then, the real-time quantitative polymerase chain reaction was enabled to detect gene expressions related to inflammatory hormones and apoptosis such as TNF-α, IL-1B, IL-6, Bax, Bcl-2, Caspase1, Caspase3 and NLRP3 for comparisons with the endogenous level of β-actin, GAPDH or 18S rRNA. [table] The gene expressions related to apoptosis in test mice' eyes, for example, Bax (FIG. 9a), Bcl-2 (FIG. 9b) and Caspase3 (FIG. 9c), were analyzed in the experiment.
# [3] = after intervention of Y7 probiotics (dosage groups not distinguished)
substance,measurement,setting,value
Lactobacillus reuteri Y7 [Y7 probiotics],gene expression of MCP-1 compared with the BL group,[1]; Y7H high-dosage group,reduced significantly
same,gene expression of NF-KB p65 compared with the BL group,[1]; Y7H high-dosage group,reduced significantly
same,gene expression of Caspase1,[1]; Y7H high-dosage group,decreased
same,gene expression of IL-18,[1]; Y7H high-dosage group,decreased
same,gene expression of NLRP3,[1]; Y7H high-dosage group,decreased
same,gene expression of MCP-1 compared with the BL group,[1]; Y7L low-dosage group,reduced significantly
same,gene expression of NF-KB p65 compared with the BL group,[1]; Y7L low-dosage group,reduced significantly
same,gene expression of Caspase1,[1]; Y7L low-dosage group,decreased
same,gene expression of IL-18,[1]; Y7L low-dosage group,decreased
same,gene expression of NLRP3,[1]; Y7L low-dosage group,decreased
same,gene expression of Bcl-2 compared with the BL group,[2]; Y7H high-dosage group,increased significantly
same,"gene expression of Bax, closeness to the NC group",[2]; Y7L low-dosage group versus LU group,closer to the NC group than the LU group
same,gene expression of Bax,[2]; [3],significantly inhibited
same,gene expression of Caspase3,[2]; [3],closer to the NC group
